Laboratory results reported in ChEMBL document CHEMBL1201862, “PubChem BioAssay data set” (2004).
One block for each compound: values may come before it. Active and inactive are the calls of the source.

Key:
[1] = target: Matrix metalloproteinase-14 (Homo sapiens, UniProt P50281); assay: Dose Response confirmation of uHTS hits for a small molecule inhibitors of MT1-MMP activation in a fluorescence assay set 1.; type: functional
Protein Wnt-3a = Protein Wnt-3a (Mus musculus, UniProt P27467); assay: SAR analysis of small molecule antagonists of Gli-SUFU in a Wnt3a luminescent reporter assay.; type: functional
[2] = target: SWI/SNF-related matrix-associated actin-dependent regulator of chromatin subfamily A member 2 (Homo sapiens, UniProt P51531); assay: Luminescence-based cell-based high throughput dose response assay to identify activators of the function of SWI/SNF related, matrix associated, actin dependent regulator of chromatin, subfamily a, member 2 (SMARCA2, BRM).; type: functional
Cytochrome P450 2C19 = Cytochrome P450 2C19 (Homo sapiens, UniProt P33261); assay: Cytochrome panel assay with activity outcomes. Panel member name: p450-cyp2c19 Compounds with AC50 equal or less than 10 uM are considered active; type: functional; details: read-out: AC50
[3] = viability loss in HeLa cells – cytotoxicity control for MgcRacGAP inhibitor project, dose response (AID 624300); type: functional
[4] = target: Glucose-6-phosphate 1-dehydrogenase (Homo sapiens, UniProt P11413); assay: inhibition of Homo sapiens G6PD, dose series – biochemical, fluorescence, selectivity assay for P. falciparum G6PD inhibitor project, dose response (AID 504792); type: functional
Kallikrein-7 = Kallikrein-7 (Homo sapiens, UniProt P49862); assay: Fluorescence Intensity-based biochemical primary high throughput dose response assay to identify activators of kallikrein-7 (K7) zymogen.
[5] = target: T1, DNA repair protein RAD52 homolog (Homo sapiens, UniProt P43351); type: functional, biochemical
T1 sequence (P43351 whole entry): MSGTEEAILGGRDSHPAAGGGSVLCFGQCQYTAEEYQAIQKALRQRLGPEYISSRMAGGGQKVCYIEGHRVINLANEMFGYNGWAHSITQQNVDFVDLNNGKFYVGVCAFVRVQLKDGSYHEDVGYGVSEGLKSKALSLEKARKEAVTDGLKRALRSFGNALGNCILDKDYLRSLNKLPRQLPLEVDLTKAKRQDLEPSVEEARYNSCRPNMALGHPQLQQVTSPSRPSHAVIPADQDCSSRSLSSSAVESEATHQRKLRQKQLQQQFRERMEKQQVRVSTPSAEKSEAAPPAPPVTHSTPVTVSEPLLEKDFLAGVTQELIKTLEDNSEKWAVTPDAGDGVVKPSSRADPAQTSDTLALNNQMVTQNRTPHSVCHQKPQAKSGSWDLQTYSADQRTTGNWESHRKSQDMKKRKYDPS

[6] = target: T2, Rac GTPase-activating protein 1 (Homo sapiens, UniProt Q9H0H5); assay: blockers of MgcRacGAP-driven Rac1 GTP hydrolysis – biochemical, ADP Hunter fluorescence, primary and confirmatory, confirmation (AID 624330); type: functional
T2 sequence (Q9H0H5 whole entry): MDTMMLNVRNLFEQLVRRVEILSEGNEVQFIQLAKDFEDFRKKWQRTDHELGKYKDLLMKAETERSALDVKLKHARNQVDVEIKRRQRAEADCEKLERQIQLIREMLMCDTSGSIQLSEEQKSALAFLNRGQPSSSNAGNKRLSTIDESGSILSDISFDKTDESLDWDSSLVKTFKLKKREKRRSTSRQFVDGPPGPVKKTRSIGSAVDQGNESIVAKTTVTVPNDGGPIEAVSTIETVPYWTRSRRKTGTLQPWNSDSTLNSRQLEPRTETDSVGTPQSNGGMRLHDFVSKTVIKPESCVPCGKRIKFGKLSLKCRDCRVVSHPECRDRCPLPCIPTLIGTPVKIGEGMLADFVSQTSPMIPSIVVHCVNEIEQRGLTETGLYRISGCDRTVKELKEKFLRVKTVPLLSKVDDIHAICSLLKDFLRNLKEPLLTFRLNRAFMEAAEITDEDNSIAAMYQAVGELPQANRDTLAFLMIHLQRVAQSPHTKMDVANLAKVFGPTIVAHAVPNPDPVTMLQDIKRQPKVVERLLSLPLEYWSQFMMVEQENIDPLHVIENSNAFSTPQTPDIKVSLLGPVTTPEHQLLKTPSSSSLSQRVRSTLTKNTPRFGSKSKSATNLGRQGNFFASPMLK

[7] = target: Dual specificity tyrosine-phosphorylation-regulated kinase 1A (Rattus norvegicus, UniProt Q63470); type: biochemical, Homo sapiens
[8] = Counterscreen for activators of the function of SWI/SNF related, matrix associated, actin dependent regulator of chromatin, subfamily a, member 2 (SMARCA2, BRM): Luminescence-based cell-based high throughput dose response assay to identify non-selective compounds using the VP16 reporter assay.; type: functional
[9] = target: T3, Corticotropin-releasing factor receptor 2/Corticotropin-releasing factor-binding protein (Homo sapiens, UniProt P24387+Q13324); assay: Dose Response confirmation of uHTS hits for small molecule antagonists of the CRF-binding protein and CRF-R2 receptor complex.; type: functional; details: read-out: IC50_Mean
T3 sequence (Q13324 whole entry): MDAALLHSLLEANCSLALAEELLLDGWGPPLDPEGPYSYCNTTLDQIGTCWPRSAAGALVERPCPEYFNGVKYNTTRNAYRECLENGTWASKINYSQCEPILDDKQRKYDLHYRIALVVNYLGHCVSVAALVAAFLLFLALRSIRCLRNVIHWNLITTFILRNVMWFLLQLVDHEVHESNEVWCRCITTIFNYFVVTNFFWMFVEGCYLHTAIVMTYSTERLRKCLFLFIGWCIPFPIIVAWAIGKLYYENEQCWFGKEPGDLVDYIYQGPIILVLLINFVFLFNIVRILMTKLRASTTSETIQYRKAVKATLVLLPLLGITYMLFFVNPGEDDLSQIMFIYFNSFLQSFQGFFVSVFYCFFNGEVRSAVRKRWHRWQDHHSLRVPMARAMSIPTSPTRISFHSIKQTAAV
T3 sequence (P24387 whole entry): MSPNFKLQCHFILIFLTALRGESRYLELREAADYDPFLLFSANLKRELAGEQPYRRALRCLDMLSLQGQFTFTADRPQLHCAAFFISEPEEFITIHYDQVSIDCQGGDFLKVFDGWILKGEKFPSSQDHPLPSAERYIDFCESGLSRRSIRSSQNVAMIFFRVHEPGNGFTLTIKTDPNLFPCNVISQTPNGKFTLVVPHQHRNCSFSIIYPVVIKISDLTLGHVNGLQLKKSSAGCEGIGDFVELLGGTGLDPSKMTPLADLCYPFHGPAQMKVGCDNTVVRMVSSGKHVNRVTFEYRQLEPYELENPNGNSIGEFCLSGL

[10] = blockers of CRF-binding protein–CRF-R2 complex – cell-based, uHTS hits, 384-well, dose response (AID 651639); type: functional, Homo sapiens; details: read-out: IC50_Mean
[11] = target: T3, Corticotropin-releasing factor receptor 2/Corticotropin-releasing factor-binding protein; assay: activators of CRF receptor 2 with binding protein – uHTS hits, confirmation (AID 602473); type: functional; details: read-out: EC50_Mean
Aminopeptidase N = target: T4, Aminopeptidase N (Plasmodium falciparum FcB1/Columbia, UniProt O96935); assay: malaria alanyl aminopeptidase activity blockers – biochemical, fluorogenic H-Leu-NHMec substrate, 1536-well (AID 1445); set-up: species or system Plasmodium falciparum 3D7, 3D7
T4 sequence (O96935 whole entry): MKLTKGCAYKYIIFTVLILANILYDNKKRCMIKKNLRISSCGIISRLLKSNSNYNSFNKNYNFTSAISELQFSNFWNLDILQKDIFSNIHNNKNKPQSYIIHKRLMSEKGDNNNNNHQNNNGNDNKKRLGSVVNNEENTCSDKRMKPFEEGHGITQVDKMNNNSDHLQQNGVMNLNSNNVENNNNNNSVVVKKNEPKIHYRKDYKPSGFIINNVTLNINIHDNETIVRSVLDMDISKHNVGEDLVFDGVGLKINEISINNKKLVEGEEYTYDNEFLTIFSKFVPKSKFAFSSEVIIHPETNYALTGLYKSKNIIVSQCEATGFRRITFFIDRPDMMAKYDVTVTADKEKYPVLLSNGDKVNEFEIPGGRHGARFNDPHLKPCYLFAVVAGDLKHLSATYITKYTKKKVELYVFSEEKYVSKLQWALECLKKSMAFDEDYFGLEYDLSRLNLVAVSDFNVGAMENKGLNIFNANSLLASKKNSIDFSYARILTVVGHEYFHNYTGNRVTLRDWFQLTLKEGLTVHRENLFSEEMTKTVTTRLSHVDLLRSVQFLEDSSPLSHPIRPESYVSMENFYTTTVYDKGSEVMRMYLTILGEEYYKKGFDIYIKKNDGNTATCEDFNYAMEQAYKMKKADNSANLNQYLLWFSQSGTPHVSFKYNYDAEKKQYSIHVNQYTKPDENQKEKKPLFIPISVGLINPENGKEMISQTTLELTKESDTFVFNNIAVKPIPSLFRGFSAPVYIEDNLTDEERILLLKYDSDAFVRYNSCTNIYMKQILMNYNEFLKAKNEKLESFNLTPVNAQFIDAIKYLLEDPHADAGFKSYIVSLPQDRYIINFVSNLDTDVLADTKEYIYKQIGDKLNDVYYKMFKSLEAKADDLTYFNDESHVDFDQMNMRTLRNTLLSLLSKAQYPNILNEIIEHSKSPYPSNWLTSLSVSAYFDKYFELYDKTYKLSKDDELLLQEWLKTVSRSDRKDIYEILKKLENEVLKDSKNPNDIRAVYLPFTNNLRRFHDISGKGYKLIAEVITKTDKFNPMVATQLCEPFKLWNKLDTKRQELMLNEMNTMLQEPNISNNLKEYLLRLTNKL

Paired box protein Pax-8 = Paired box protein Pax-8 (Homo sapiens, UniProt Q06710); assay: PAX8 transcriptional activity inhibition in RMG-I – RMG-I cells, luciferase, cherry-pick, dose response (AID 687027); type: functional, cell-based;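 further: luciferase reporter driven by Pax8 target thyroperoxidase promoter measured by SteadyGlo luminescence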
[12] = OVCAR-3 cell viability loss – plate reader, dry powder samples, PAX8 inhibitor project, dose response (AID 743044); type: functional, cell-based
[13] = COV434 cell viability loss – plate reader, dry powder, SA7, cytotoxicity control for PAX8 inhibitor project, dose response (AID 743145); type: functional, cell-based
[14] = OV-90 cell viability loss – plate reader, dry powder, SA8, PAX8 inhibitor project, dose response (AID 743149); type: functional, cell-based
[15] = PAX5 cellular inhibition readout – cell-based, plate reader, dry powder samples, selectivity assay for PAX8 inhibitor project, dose response (AID 743047); type: functional;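 further: HEK293 cells carrying a Pax5 driven CD19 promoter luciferase reporter; potency of inhibitors that lower reporter luminescence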
[16] = PAX8-dependent cell viability loss – plate reader, dry powder, dose response (AID 743049); type: functional, cell-based

Sequence of Paired box protein Pax-8 (Q06710 whole entry): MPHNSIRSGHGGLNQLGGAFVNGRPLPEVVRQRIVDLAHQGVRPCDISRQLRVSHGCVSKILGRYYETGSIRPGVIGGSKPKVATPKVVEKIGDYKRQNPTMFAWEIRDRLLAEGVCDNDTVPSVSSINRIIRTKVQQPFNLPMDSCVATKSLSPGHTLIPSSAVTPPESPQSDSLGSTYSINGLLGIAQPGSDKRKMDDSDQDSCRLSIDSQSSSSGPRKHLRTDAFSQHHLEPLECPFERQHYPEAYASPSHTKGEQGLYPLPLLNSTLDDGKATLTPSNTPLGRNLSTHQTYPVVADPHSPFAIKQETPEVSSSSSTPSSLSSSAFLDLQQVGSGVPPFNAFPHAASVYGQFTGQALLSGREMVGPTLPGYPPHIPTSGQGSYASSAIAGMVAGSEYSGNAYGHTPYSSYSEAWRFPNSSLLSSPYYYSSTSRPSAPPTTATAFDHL
Sequence of Protein Wnt-3a (P27467 whole entry): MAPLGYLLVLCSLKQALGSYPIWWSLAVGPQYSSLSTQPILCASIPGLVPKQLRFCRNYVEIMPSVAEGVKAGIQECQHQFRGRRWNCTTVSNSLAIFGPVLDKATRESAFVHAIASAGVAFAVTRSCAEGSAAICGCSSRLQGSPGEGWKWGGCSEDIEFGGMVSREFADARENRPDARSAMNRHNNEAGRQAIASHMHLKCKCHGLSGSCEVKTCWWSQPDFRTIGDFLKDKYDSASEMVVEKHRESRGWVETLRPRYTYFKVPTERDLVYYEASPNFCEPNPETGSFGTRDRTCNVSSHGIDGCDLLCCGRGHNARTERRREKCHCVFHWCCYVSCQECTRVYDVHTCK
Sequence of Kallikrein-7 (P49862 whole entry): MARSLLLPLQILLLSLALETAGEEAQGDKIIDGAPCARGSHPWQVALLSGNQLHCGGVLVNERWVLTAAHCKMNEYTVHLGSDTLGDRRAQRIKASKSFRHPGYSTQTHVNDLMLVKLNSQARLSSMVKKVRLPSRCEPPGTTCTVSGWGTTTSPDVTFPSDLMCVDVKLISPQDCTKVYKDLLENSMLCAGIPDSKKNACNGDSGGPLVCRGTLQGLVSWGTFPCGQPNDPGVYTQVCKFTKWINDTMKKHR
Sequence of SWI/SNF-related matrix-associated actin-dependent regulator of chromatin subfamily A member 2 (P51531 whole entry): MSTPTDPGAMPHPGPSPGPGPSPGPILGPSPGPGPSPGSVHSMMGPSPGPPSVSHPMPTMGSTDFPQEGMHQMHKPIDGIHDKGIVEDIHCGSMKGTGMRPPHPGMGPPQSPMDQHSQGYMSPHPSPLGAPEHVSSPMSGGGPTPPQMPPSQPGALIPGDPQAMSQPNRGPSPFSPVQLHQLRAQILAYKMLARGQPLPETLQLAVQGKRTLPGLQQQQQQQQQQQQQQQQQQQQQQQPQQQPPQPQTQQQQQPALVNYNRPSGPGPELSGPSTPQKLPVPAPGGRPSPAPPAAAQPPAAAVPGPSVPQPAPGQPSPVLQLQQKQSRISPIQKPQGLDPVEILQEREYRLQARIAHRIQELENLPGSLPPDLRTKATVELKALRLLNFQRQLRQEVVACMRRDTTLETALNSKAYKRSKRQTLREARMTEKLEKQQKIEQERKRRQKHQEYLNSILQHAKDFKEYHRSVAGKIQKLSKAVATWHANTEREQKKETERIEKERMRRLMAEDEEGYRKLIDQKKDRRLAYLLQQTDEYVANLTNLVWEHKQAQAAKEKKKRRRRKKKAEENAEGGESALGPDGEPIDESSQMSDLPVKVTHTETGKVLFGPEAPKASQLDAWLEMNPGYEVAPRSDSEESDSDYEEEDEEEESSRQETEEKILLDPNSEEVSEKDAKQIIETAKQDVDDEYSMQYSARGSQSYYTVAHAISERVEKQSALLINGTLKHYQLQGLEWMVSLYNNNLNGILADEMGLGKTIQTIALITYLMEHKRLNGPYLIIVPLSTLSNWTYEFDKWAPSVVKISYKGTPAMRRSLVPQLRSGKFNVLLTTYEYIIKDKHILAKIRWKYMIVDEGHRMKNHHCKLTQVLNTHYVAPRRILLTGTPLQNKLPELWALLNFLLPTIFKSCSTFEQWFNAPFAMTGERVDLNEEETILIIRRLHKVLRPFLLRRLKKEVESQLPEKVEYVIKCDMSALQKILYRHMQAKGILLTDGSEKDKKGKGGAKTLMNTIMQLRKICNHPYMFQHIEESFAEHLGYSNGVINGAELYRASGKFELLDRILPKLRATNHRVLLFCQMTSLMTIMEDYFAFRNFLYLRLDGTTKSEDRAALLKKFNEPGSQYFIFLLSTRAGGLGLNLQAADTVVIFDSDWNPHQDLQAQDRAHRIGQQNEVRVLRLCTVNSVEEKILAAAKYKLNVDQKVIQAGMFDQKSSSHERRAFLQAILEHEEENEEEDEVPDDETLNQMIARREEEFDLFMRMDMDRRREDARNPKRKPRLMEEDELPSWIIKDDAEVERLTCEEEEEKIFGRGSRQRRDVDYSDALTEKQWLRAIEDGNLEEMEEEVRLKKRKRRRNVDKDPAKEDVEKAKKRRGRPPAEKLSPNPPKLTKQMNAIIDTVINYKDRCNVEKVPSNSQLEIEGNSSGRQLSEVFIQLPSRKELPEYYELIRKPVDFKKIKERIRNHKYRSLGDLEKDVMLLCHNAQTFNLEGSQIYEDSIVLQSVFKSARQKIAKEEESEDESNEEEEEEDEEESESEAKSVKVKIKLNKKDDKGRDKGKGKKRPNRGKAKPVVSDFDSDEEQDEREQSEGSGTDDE
Sequence of Cytochrome P450 2C19 (P33261 whole entry): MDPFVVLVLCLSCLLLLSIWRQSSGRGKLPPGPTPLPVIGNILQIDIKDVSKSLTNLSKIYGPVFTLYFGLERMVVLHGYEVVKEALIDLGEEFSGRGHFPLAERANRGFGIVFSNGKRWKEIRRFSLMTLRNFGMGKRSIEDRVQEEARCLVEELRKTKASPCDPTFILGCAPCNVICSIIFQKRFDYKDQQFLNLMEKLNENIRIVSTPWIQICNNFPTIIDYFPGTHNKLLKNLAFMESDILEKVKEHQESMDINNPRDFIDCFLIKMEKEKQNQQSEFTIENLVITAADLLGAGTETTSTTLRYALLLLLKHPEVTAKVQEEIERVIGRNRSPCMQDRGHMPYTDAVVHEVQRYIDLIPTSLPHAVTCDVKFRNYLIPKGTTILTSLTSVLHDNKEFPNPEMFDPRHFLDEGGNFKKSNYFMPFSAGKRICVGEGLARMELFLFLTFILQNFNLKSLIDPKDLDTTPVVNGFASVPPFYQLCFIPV
Sequence of Glucose-6-phosphate 1-dehydrogenase (P11413 whole entry): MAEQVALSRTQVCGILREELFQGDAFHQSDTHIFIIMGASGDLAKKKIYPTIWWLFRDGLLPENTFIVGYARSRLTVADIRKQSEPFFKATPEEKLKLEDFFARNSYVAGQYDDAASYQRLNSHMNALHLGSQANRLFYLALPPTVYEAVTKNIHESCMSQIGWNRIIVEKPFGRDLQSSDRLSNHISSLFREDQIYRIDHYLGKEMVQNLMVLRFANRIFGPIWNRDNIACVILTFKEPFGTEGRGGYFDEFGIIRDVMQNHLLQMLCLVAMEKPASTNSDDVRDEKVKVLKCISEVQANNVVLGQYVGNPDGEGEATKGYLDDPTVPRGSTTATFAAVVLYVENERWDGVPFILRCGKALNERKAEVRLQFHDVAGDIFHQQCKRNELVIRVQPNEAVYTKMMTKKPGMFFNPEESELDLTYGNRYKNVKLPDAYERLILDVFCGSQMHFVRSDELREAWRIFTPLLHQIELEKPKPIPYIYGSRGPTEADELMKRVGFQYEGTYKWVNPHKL

IC50 [1]: > 80 µM (inactive)
SMILES: CNc1ccc(N=Nc2cc[n+]([O-])cc2C)cc1C

IC50 (Protein Wnt-3a): > 21.8 µM (inactive)
SMILES: CCN(CC)c1cc(NC(=O)c2ccc(Br)o2)ncn1

SMILES: COc1ccc2nc3cc(Cl)ccc3c(Nc3ccc(O)c(CN4CCN(C)CC4)c3)c2c1
EC50 [2]: > 91.1 µM (inactive) | AC50 (Cytochrome P450 2C19): 2.51 µM (inconclusive) | CC50 [3]: 25.6 µM (active) | IC50 [4]: > 80 µM (inactive) | EC50 (Kallikrein-7): > 69.5 µM (inactive) | AC50 [5]: < 150 nM (active) | IC50 [6]: 45.4 µM (active) | AC50 [7]: 7.7 µM (active) | EC50 [8]: > 91.1 µM (inactive)

IC50 [9]: 18.4 µM (active) | IC50 [10]: > 20 µM (inactive) | EC50 [11]: > 53 µM (inactive) | IC50 (Aminopeptidase N): 69.2 µM (active)
SMILES: Cc1ccc(S(=O)(=O)NC2=NC(=O)/C(=C/c3ccccc3)S2)cc1

SMILES: CC(C)c1cc(C(=O)OCC(=O)N2CCN(C(=O)c3ccco3)CC2)c(O)c(C(C)C)c1
AC50 (Paired box protein Pax-8): 1.58 µM (active) | AC50 [12]: 49.9 µM (active) | AC50 [13]: 13.7 µM (active) | AC50 [14]: 81.3 µM (active) | AC50 [15]: 45.8 µM (active) | AC50 [16]: 10.8 µM (active)
